From ChEMBL document CHEMBL3108712, “Viniphenol A, a complex resveratrol hexamer from Vitis vinifera stalks: structural elucidation and protective effects against amyloid-β-induced toxicity in PC12 cells” (J Nat Prod, 2014)

System: PC-12
Assay: Neuroprotective activity against amyloid beta (25 to 35)-induced toxicity in rat PC12 cells assessed as cell viability preincubated for 48 hrs with amyloid beta (25 to 35) followed by addition to cell culture measured after 24 hrs by MTT assay
Format: functional, cell-based

## Oc1ccc([C@@H]2c3c(O)cc(O)cc3[C@H]3c4c(cc(O)cc4[C@@H]2[C@@H](c2ccc(O)cc2)[C@@H]2c4cc(O)cc5c4[C@H](c4cc(O)cc(O)c4[C@@H](c4ccc(O)cc4)[C@@H]2c2cc(O)cc4c2[C@H](c2cc(O)cc(O)c2)[C@@H](c2ccc(O)cc2)O4)[C@@H](c2ccc(O)cc2)O5)O[C@@H]3c2ccc(O)cc2)cc1
  Activity: Dose-dependent effect
